The values that follow are results of earlier work, collected in US20230285350A1, “FORMULATIONS FOR TETRACAINE AND LIDOCAINE” (LYOTIP, INC., priority 2020, published 2023).

In the case of `CCN(CC)CC(=O)Nc1c(C)cccc1C` [lidocaine, Lidocaine], under “used as an injectable”, the duration of effect entry is given as “half an hour to three hours”.

For the molecule `CNC[C@H](O)c1ccc(O)c(O)c1` [Epinephrine], the “prolongation of numbing effect and motor block effect of the anesthetic” value (used with tetracaine) is given as “up to an hour”.

For `CCCCNc1ccc(C(=O)OCCN(C)C)cc1` [Tetracaine], for the setting “used in the eyes”, the Onset of effects was at most 30 s and the duration of effects result is listed as “less than 15 minutes”.
